Data from patent publication US10537100B2, “Substituted methylenedioxybenzyl compounds and their use as synergists” (Endura SPA, priority 2015, dated 2020).

What was measured:
[1] = test system: Myzus persicae clone highly resistant to insecticide; test: Contact test on treated plant (pea seedling dip), synergist with neonicotinoid; assay type: in vivo; details: for Efficacy of the tested compounds: synergist 1 g/L, mortality assessed at 48 hours, Abbott's formula
Method: Laboratory bred Myzus persicae clone highly resistant to insecticide, derived from a field collected population after control failure, mixed age apterous parthenogenetic females adults, were assayed for the test.
Four (4) different commercially available formulated insecticides were used and diluted as follow: • imidacloprid: 1000 mL of test solution was prepared diluting in water 20 μL of commercial formulation, containing 200 g/L of a.i., equivalent to 0.004 g of imidacloprid per liter of insecticidal solution; • thiacloprid: 1000 mL of test solution was prepared diluting in water 24 μL of commercial formulation containing 480 g/L of a.i, equivalent to 0.012 g of thiacloprid per liter of insecticidal solution;
The compounds of Example 1 and Example 2 were formulated in the form of emulsified concentrate (EC).
The following amount of the EC formulations were added to the above described insecticidal solution of insecticide to have a final concentration of synergist equal to 1 g/L:
20 mL of test formulations were used to wet by dipping for 5″ a small pea seedling (1-1.5 cm long). Seedlings were left at room temperature in a fume hood and allowed to dry for 15″. After drying 10-15 apterous parthenogenetic females were moved to the seedling and allowed to settle. Mortality produced by pyrethroids was assessed 24 hours later. Mortality produced by neonicotinoids was assessed 48 hours later.
Three replicates were executed each composed by 2 subreplicates (seedlings) and 60-90 specimens were used per test formulation.
In parallel with the test, the mortality of aphids in an untreated control replicate (seedlings dipped in water) was determined using the same conditions and methods.
The efficacy was calculated according the Abbott's formula: […]

Blattella germanica = test: Contact test on treated glass vials, synergist with cypermethrin; assay type: in vivo
Method: Laboratory bred B. germanica species, mixed ages (pre-immaginal and imagoes) and mixed sex were assayed for the test.
An insecticide stock solution was prepared with 150 μL of cypermethrin commercial formulation and diluted to 15 μL/mL with technical acetone to a final volume of 10 mL. The solution contained 450 μg/mL of cypermethrin per liter of insecticidal solution
Stock solution of the compounds of Example 1 and Example 2 were prepared dissolving around 10 mg of EC formulations containing compounds of the Example 1 and Example 2 in technical acetone to have a final concentration of 1.365 μg/mL.
Stock solution (1650 μL) was diluted to 2250 μL with acetone or with stock of insecticide in acetone to have respectively a final concentration of 1 g/L of synergist (as active ingredient) or 0.12 g/L of cypermethrin+1 g/L of the compounds of Example 1 and Example 2. Insecticide alone was prepared adding 600 μL of stock solution to 1650 μL of acetone.
Glass vials (internal surface 35 cm^2) were treated with 350 μL of insecticide solution and allowed to dry in a fume hood on a vial rotator and used as soon as the acetone was fully evaporated.
B. germanica specimens were introduced singly in vials. 20 specimens were tested for each combination of product. The exposure time to product residues was 30 minutes. After this duration the specimens were transferred to an untreated vial ad provided with food and water.
In parallel within the test, a control study has been set up with the same conditions and methods using acetone only treated vials.
The test conditions were as follows: • temperature: 22-24° C. during knock down evaluation (t: 0-30′); 26° C. during mortality assessment (t: 24 h) • relative humidity: min. 60% • light regime: 8 hrs dark/16 hrs natural illumination.
The reading intervals of the number of knocked down and the number of dead insects were: 5-10-15-20-25-30 minutes. A final reading was done 24 hours after the starting of the exposure.
The calculation model of efficacy is according to Abbott's formula (Abbott W S (1925) A method for computing the effectiveness of an insecticide. J. Econ. Entomol. 18: 265-267):
The results are reported in the following Table 5 and represent an average of 4 repetitions.

[2] = target: T1, Myzus persicae resistance associated esterase, FE4 (Myzus persicae, UniProt P35502); test: Inhibition of resistance associated esterase FE4, 4-nitrophenyl acetate substrate; assay type: biochemical; details: for inhibition activity compared with PBO: FE4, statement in text; for remaining activity at 10000 µM (stock): purified FE4, 2.5 μL of 10 mM in acetone, 10 min incubation, 4-nitrophenyl acetate 0.8 mM, read-out: Myzus persicae esterases - percentage of the activity remaining FE4
T1 construct: would be utilized for the purified esterases from aphids; from tissue; host or cells: aphids (Myzus persicae)
T1 sequence (P35502 24-564): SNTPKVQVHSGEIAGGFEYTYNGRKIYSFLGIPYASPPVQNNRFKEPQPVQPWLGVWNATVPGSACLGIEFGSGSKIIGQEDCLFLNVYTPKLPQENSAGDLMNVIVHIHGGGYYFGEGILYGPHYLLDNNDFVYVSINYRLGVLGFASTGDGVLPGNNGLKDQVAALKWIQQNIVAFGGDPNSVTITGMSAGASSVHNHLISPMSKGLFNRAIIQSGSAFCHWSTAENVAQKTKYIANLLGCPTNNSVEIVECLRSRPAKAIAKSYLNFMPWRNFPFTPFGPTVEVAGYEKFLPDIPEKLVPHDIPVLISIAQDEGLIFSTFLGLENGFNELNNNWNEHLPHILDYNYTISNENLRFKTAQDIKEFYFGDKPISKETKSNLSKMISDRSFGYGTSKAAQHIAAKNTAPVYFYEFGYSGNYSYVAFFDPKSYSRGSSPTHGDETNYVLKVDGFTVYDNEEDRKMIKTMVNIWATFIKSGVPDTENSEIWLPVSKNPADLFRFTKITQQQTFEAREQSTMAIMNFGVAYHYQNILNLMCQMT
Method: It was envisaged, therefore, that the ‘esterase interference assay’ (Khot et al., 2008) would be utilized for the purified esterases from aphids. Various esterase substrates were assessed to find one suitable of monitoring inhibition in an insect homogenate. The Myzus persicae resistance associated esterase, FE4, was used.
Initially the esterase interference assay was carried out, as being the ‘absolute’ protocol for characterising interactions between the compounds of Example 1 and Example 2 and FE4. However, since this is a protracted method, and it would not be applicable for the B. tabaci esterases, a selection of products already reported in the literature were used to compare the interference assay and the use of a model substrate.
From the literature (Philippou et al., 2013) it is known that 1-naphthyl acetate is not suitable for this assay. Instead, 4-nitrophenyl acetate was used. A 10 mM pNA stock was prepared in acetone and added to 0.02 M phosphate buffer pH 7.0 (final concentration 2 mM). The comparison was made with 6 analogues of variable efficacy.
For the assay 10 μL of purified FE4 was diluted to a total volume of 50 μL by the addition of 0.02 M phosphate buffer, pH 7.0 in individual wells of a microplate (maxisorb, NUNC). To each well, 2.5 μL of 10 mM of the compound of Example 1 and of Example 2 in acetone was added and incubated for 10 mins, with acetone only used as a control. Following incubation, 100 μL of 0.02 phosphate buffer, pH 7.0 and 100 μL of 2 mM 4-nitrophenyl acetate was added (final volume in well 250 μL, final substrate concentration 0.8 mM). Enzyme activity was read at 405 nm in a Spectramax Tmax for 5 min, with readings taken every 5 s. The rate (mOD min^−1) was calculated by the integrated software, Softmax Pro v.5.4. A PBO solution (10 mM) was prepared in the same way as a comparison.

[3] = Imidacloprid (0.004 g per liter)
[4] = thiacloprid (0.012 g per liter)

| SMILES | efficacy in combination with imidacloprid and thiacloprid [1] | Efficacy of the tested compounds [1, 3] | Efficacy of the tested compounds [1, 4] | synergist effect when mixed with Cypermethrin (Blattella germanica) | inhibition activity compared with PBO [2] | remaining activity at 10000 µM (stock) [2] [%] |
| --- | --- | --- | --- | --- | --- | --- |
| C#CCOCc1cc2c(cc1CCCC)OCO2 [Compound of Example 2, 5-n-butyl-6-((prop-2-ynyloxy)methyl)benzo[d][1,3]dioxole] | very good efficacy | −20.3 | −20.3 | synergist effect | better than PBO | 28.7 |
| C#CCOCc1cc2c(cc1CCCCCC)OCO2 [Compound of Example 1, 5-n-hexyl-6-((prop-2-ynyloxy)methyl)benzo[d][1,3]dioxole] | very good efficacy | 23.8 | 23.8 | synergist effect | better than PBO | 23.1 |
